Measured values reported in US20230085307A1, “PYRIDAZINONE COMPOUND AND HERBICIDE” (NISSAN CHEMICAL CORPORATION, priority 2019, published 2023).

What was measured:
[1] = test system: windgrass; test: Test Example 5: herbicidal effect by foliage application, plastic box (Table 20, symbol L); format: in vivo, windgrass (Apera spica-venti); conditions: 320 g/ha
Procedure, shortened: (§1)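 Plants were sown into sterilized diluvial soil under about 1.5 cm cover and kept in a greenhouse at 25° C. to 30° C. Fourteen days on, foliage received an even spray of the diluted emulsion. Herbicidal or crop effect was judged three weeks afterwards.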

[2] = test system: Italian ryegrass; test: Test Example 4: herbicidal effect by soil treatment (Table 19, symbol K); format: in vivo, Italian ryegrass (Lolium multiflorum); conditions: amount of applied herbicide 320 g/ha
Procedure, shortened: (§2)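 In this soil treatment, the formulated compound reached the seeds only through the soil: seeds were buried about 1.5 cm deep in sterilized diluvial soil, then the diluted emulsion was sprayed over the surface. After three weeks at 25° C. to 30° C. in a greenhouse, effects were graded on criteria from an earlier test.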

[3] = test system: green foxtail; test: Test Example 4: herbicidal effect by soil treatment (Table 19, symbol G); format: in vivo, green foxtail (Setaria viridis); conditions: amount of applied herbicide 320 g/ha
Procedure, shortened: as §2

[4] = test system: southern crabgrass; test: Test Example 5: herbicidal effect by foliage application, plastic box (Table 20, symbol F); format: in vivo, southern crabgrass (Digitaria ciliaris); conditions: 320 g/ha
Procedure, shortened: as §1

[5] = test system: barnyard grass; test: Test Example 3: herbicidal effect by foliage application, Wagner pot (Table 18, symbol H); format: in vivo, barnyard grass (Echinochloa crus-galli); conditions: 320 g/ha
Procedure, shortened: (§3)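 Plants were sown in alluvial soil held under 0.1–0.5 cm standing water and grown 14 days in a greenhouse at 25–30 °C. An emulsifiable formulation, water-diluted to the set dose, was then sprayed onto the foliage, and effects were scored three weeks later using previously defined criteria.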

[6] = test system: barnyard grass; test: Test Example 4: herbicidal effect by soil treatment (Table 19, symbol H); format: in vivo, barnyard grass (Echinochloa crus-galli); conditions: amount of applied herbicide 320 g/ha
Procedure, shortened: as §2

[7] = test system: blackgrass; test: Test Example 4: herbicidal effect by soil treatment (Table 19, symbol J); format: in vivo, blackgrass (Alopecurus myosuroides); conditions: amount of applied herbicide 320 g/ha
Procedure, shortened: as §2

[8] = test system: barnyard grass; test: Test Example 5: herbicidal effect by foliage application, plastic box (Table 20, symbol H); format: in vivo, barnyard grass (Echinochloa crus-galli); conditions: 320 g/ha
Procedure, shortened: as §1

[9] = test system: Italian ryegrass; test: Test Example 5: herbicidal effect by foliage application, plastic box (Table 20, symbol K); format: in vivo, Italian ryegrass (Lolium multiflorum); conditions: 320 g/ha
Procedure, shortened: as §1

[10] = test system: lambsquarters; test: Test Example 5: herbicidal effect by foliage application, plastic box (Table 20, symbol O); format: in vivo, lambsquarters (Chenopodium album); conditions: 320 g/ha
Procedure, shortened: as §1

[11] = test system: persian speedwell; test: Test Example 4: herbicidal effect by soil treatment (Table 19, symbol R); format: in vivo, Persian speedwell (Veronica persica); conditions: amount of applied herbicide 320 g/ha
Procedure, shortened: as §2

[12] = test system: redroot pigweed; test: Test Example 5: herbicidal effect by foliage application, plastic box (Table 20, symbol N); format: in vivo, redroot pigweed (Amaranthus retroflexus); conditions: 320 g/ha
Procedure, shortened: as §1

[13] = test system: lambsquarters; test: Test Example 4: herbicidal effect by soil treatment (Table 19, symbol O); format: in vivo, lambsquarters (Chenopodium album); conditions: amount of applied herbicide 320 g/ha
Procedure, shortened: as §2

[14] = test system: blackgrass; test: Test Example 5: herbicidal effect by foliage application, plastic box (Table 20, symbol J); format: in vivo, blackgrass (Alopecurus myosuroides); conditions: 320 g/ha
Procedure, shortened: as §1

[15] = test system: southern crabgrass; test: Test Example 4: herbicidal effect by soil treatment (Table 19, symbol F); format: in vivo, southern crabgrass (Digitaria ciliaris); conditions: amount of applied herbicide 320 g/ha
Procedure, shortened: as §2

[16] = test system: redroot pigweed; test: Test Example 4: herbicidal effect by soil treatment (Table 19, symbol N); format: in vivo, redroot pigweed (Amaranthus retroflexus); conditions: amount of applied herbicide 320 g/ha
Procedure, shortened: as §2

[17] = test system: velvetleaf; test: Test Example 5: herbicidal effect by foliage application, plastic box (Table 20, symbol M); format: in vivo, velvetleaf (Abutilon theophrasti); conditions: 320 g/ha
Procedure, shortened: as §1

[18] = test system: chickweed; test: Test Example 5: herbicidal effect by foliage application, plastic box (Table 20, symbol P); format: in vivo, common chickweed (Stellaria media); conditions: 320 g/ha
Procedure, shortened: as §1

[19] = test system: chickweed; test: Test Example 4: herbicidal effect by soil treatment (Table 19, symbol P); format: in vivo, common chickweed (Stellaria media); conditions: amount of applied herbicide 320 g/ha
Procedure, shortened: as §2

[20] = test system: Chinese sprangletop; test: Test Example 3: herbicidal effect by foliage application, Wagner pot (Table 18, symbol D); format: in vivo, chinese sprangletop (Leptochloa chinensis); conditions: 320 g/ha
Procedure, shortened: as §3

[21] = test system: rice flat sedge; test: Test Example 3: herbicidal effect by foliage application, Wagner pot (Table 18, symbol E); format: in vivo, rice flat sedge (Cyperus iria); conditions: 320 g/ha
Procedure, shortened: as §3

[22] = test system: windgrass; test: Test Example 4: herbicidal effect by soil treatment (Table 19, symbol L); format: in vivo, windgrass (Apera spica-venti); conditions: amount of applied herbicide 320 g/ha
Procedure, shortened: as §2

[23] = test system: wild oat; test: Test Example 4: herbicidal effect by soil treatment (Table 19, symbol I); format: in vivo, wild oat (Avena fatua); conditions: amount of applied herbicide 320 g/ha
Procedure, shortened: as §2

[24] = test system: green foxtail; test: Test Example 5: herbicidal effect by foliage application, plastic box (Table 20, symbol G); format: in vivo, green foxtail (Setaria viridis); conditions: 320 g/ha
Procedure, shortened: as §1

[25] = test system: persian speedwell; test: Test Example 5: herbicidal effect by foliage application, plastic box (Table 20, symbol R); format: in vivo, Persian speedwell (Veronica persica); conditions: 320 g/ha
Procedure, shortened: as §1

[26] = test system: velvetleaf; test: Test Example 4: herbicidal effect by soil treatment (Table 19, symbol M); format: in vivo, velvetleaf (Abutilon theophrasti); conditions: amount of applied herbicide 320 g/ha
Procedure, shortened: as §2

[27] = test system: wild oat; test: Test Example 5: herbicidal effect by foliage application, plastic box (Table 20, symbol I); format: in vivo, wild oat (Avena fatua); conditions: 320 g/ha
Procedure, shortened: as §1

[28] = foliage application, three weeks after application
[29] = foliage application after 14-day growth, evaluated three weeks after application

Structure (SMILES) | Herbicidal effect by soil treatment, K: Italian ryegrass [2] | Herbicidal effect by soil treatment, G: green foxtail [3] | herbicidal effect on barnyard grass (H) [5] | Herbicidal effect by soil treatment, H: barnyard grass [6] | Herbicidal effect by soil treatment, J: blackgrass [7] | Herbicidal effect by soil treatment, R: persian speedwell [11] | Herbicidal effect by soil treatment, O: lambsquarters [13] | Herbicidal effect by soil treatment, F: southern crabgrass [15] | Herbicidal effect by soil treatment, N: redroot pigweed [16] | Herbicidal effect by soil treatment, P: chickweed [19] | herbicidal effect on Chinese sprangletop (D) [20] | herbicidal effect on rice flat sedge (E) [21] | Herbicidal effect by soil treatment, L: windgrass [22] | Herbicidal effect by soil treatment, I: wild oat [23] | Herbicidal effect by soil treatment, M: velvetleaf [26] | other results
Cc1nn(C)c(=O)c(-c2c(-c3ccc(C(F)(F)F)cc3)sc3cc(F)ccc23)c1O [3-139] | 0 (Herbicidal rate of 5% or less (almost no effect)) | 0 (Herbicidal rate of 5% or less (almost no effect)) | 4 (Herbicidal rate of 70% or more and less than 90%) | 0 (Herbicidal rate of 5% or less (almost no effect)) | 0 (Herbicidal rate of 5% or less (almost no effect)) | 1 (Herbicidal rate of 5% or more and less than 20%) | 3 (Herbicidal rate of 40% or more and less than 70%) | 0 (Herbicidal rate of 5% or less (almost no effect)) | 4 (Herbicidal rate of 70% or more and less than 90%) | 0 (Herbicidal rate of 5% or less (almost no effect)) | 4 (Herbicidal rate of 70% or more and less than 90%) | 4 (Herbicidal rate of 70% or more and less than 90%) | 0 (Herbicidal rate of 5% or less (almost no effect)) | 0 (Herbicidal rate of 5% or less (almost no effect)) | 2 (Herbicidal rate of 20% or more and less than 40%) | L: windgrass, herbicidal effect grade [1, 28]: 5 (Herbicidal rate of 90% or more (almost completely withered)); F: southern crabgrass, herbicidal effect grade [4, 28]: 2 (Herbicidal rate of 20% or more and less than 40%); H: barnyard grass, herbicidal effect grade [8, 28]: 5 (Herbicidal rate of 90% or more (almost completely withered)); K: Italian ryegrass, herbicidal effect grade [9, 28]: 5 (Herbicidal rate of 90% or more (almost completely withered)); O: lambsquarters, herbicidal effect grade [10, 28]: 5 (Herbicidal rate of 90% or more (almost completely withered)); N: redroot pigweed, herbicidal effect grade [12, 28]: 3 (Herbicidal rate of 40% or more and less than 70%); J: blackgrass, herbicidal effect grade [14, 28]: 0 (Herbicidal rate of 5% or less (almost no effect)); M: velvetleaf, herbicidal effect grade [17, 28]: 5 (Herbicidal rate of 90% or more (almost completely withered)); P: chickweed, herbicidal effect grade [18, 28]: 5 (Herbicidal rate of 90% or more (almost completely withered)); G: green foxtail, herbicidal effect grade [24, 28]: 4 (Herbicidal rate of 70% or more and less than 90%); R: persian speedwell, herbicidal effect grade [25, 28]: 5 (Herbicidal rate of 90% or more (almost completely withered)); I: wild oat, herbicidal effect grade [27, 28]: 3 (Herbicidal rate of 40% or more and less than 70%)
Cc1nn(C)c(=O)c(-c2c(-c3ccc(OC(F)(F)F)cc3)sc3cc(Cl)ccc23)c1O [3-149] | 0 (Herbicidal rate of 5% or less (almost no effect)) | 0 (Herbicidal rate of 5% or less (almost no effect)) | 4 (Herbicidal rate of 70% or more and less than 90%) | 0 (Herbicidal rate of 5% or less (almost no effect)) | 0 (Herbicidal rate of 5% or less (almost no effect)) | 0 (Herbicidal rate of 5% or less (almost no effect)) | 0 (Herbicidal rate of 5% or less (almost no effect)) | 0 (Herbicidal rate of 5% or less (almost no effect)) | 3 (Herbicidal rate of 40% or more and less than 70%) | 0 (Herbicidal rate of 5% or less (almost no effect)) | 5 (Herbicidal rate of 90% or more (almost completely withered)) | 4 (Herbicidal rate of 70% or more and less than 90%) | 0 (Herbicidal rate of 5% or less (almost no effect)) | 0 (Herbicidal rate of 5% or less (almost no effect)) | 1 (Herbicidal rate of 5% or more and less than 20%) | herbicidal effect on L: windgrass (evaluation grade 0-5) [1, 29]: 5 (Herbicidal rate of 90% or more (almost completely withered)); herbicidal effect on F: southern crabgrass (evaluation grade 0-5) [4, 29]: 3 (Herbicidal rate of 40% or more and less than 70%); herbicidal effect on H: barnyard grass (evaluation grade 0-5) [8, 29]: 3 (Herbicidal rate of 40% or more and less than 70%); herbicidal effect on K: Italian ryegrass (evaluation grade 0-5) [9, 29]: 3 (Herbicidal rate of 40% or more and less than 70%); herbicidal effect on O: lambsquarters (evaluation grade 0-5) [10, 29]: 4 (Herbicidal rate of 70% or more and less than 90%); herbicidal effect on N: redroot pigweed (evaluation grade 0-5) [12, 29]: 3 (Herbicidal rate of 40% or more and less than 70%); herbicidal effect on J: blackgrass (evaluation grade 0-5) [14, 29]: 5 (Herbicidal rate of 90% or more (almost completely withered)); herbicidal effect on M: velvetleaf (evaluation grade 0-5) [17, 29]: 4 (Herbicidal rate of 70% or more and less than 90%); herbicidal effect on P: chickweed (evaluation grade 0-5) [18, 29]: 0 (Herbicidal rate of 5% or less (almost no effect)); herbicidal effect on G: green foxtail (evaluation grade 0-5) [24, 29]: 4 (Herbicidal rate of 70% or more and less than 90%); herbicidal effect on R: persian speedwell (evaluation grade 0-5) [25, 29]: 4 (Herbicidal rate of 70% or more and less than 90%); herbicidal effect on I: wild oat (evaluation grade 0-5) [27, 29]: 0 (Herbicidal rate of 5% or less (almost no effect))
